From US11136317B2, “NADPH oxidase 4 inhibitors” (ACTELION PHARMACEUTICALS LTD, priority 2015, dated 2021)

Target: T1, human NOX4 (Homo sapiens, UniProt Q9NPH5)
T1 construct: The full-length human NOX4 (NM_016931.3) transcript was cloned; expressed in transfected cells
T1 sequence (Q9NPH5 1-578): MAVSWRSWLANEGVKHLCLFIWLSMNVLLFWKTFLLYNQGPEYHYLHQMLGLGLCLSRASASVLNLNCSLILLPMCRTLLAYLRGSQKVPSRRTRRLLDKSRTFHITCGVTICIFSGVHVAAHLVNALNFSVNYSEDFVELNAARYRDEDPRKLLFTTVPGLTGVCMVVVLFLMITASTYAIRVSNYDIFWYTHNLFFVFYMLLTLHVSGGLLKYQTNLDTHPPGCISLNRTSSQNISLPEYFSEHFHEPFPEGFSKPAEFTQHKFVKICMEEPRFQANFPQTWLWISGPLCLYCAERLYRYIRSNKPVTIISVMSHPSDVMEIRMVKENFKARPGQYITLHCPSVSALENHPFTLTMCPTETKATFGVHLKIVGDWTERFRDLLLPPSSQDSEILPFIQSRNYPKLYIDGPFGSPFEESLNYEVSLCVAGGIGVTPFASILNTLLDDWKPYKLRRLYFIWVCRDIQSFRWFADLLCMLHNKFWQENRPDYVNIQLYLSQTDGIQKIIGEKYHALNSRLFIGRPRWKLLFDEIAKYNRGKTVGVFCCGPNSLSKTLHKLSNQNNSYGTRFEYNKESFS
T1 sequence (P13498 1-195 partner): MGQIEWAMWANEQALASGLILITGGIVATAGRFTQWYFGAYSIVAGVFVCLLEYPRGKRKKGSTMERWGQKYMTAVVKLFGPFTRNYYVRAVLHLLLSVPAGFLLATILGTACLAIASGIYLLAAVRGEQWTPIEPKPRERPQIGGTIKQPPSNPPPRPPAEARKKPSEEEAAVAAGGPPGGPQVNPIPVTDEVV
Test: Amplex Red activity assay (cellular H2O2 formation in hNOX4 T-REx-293 cells)
Format: cell-based
Conditions: tet-induced 24 h, extracellular H2O2 by Amplex Red, 60 min 25° C., geometric mean if determined several times
Protocol: The nucleotide sequence and the amino acid sequence for the human NOX4 (Entrez Gene ID 50507) is known in the art and are published. The potency and efficacy of the compounds of Formula (I) are assessed for their potential to inhibit the formation of ROS in a cellular assay.
The full-length human NOX4 (NM_016931.3) transcript was cloned into the pDONR™221 vector (Life Technologies™) in order to generate, by site-specific integration according to the recommendation of the manufacturer (Life Technologies™), a recombinant pJTI™ R4 DEST CMV-TO vector containing the NOX4 coding information controlled by tetracycline (tet) responsive tet-on cytomegalovirus promoter (hNOX4 pDEST).
Modified human embryonic kidney cells overexpressing a tet receptor (Jump-In™ T-REx™ HEK293; Life Technologies™) were transfected with the NOX4-containing tet-on vector (hNOX4 pDEST) to generate a stable recombinant cell pool (hNOX4 T-REx-293). hNOX4 T-REx-293 cells were cultured in DMEM containing 4.5 g/L glucose supplemented with 10% fetal calf serum, penicillin (100 U/mL), streptomycin (100 μg/mL), geneticin (1 mg/mL), and blasticidin (5 μg/mL) at 37° C. in air with 5% CO2. Human Nox4 expression was induced with tet (1 μg/mL) for 24 h and extracellular H2O2 was quantified using the Amplex Red reagent (Life Technologies™).
Compounds were prepared as 10 mM stock solution in DMSO vehicle, then diluted in 384-well plates using DMSO followed by a transfer of the dilutions into the assay plate. As a control, diphenylene iodonium was included at a final concentration of 10 μM. Compounds were tested at 10 concentrations in the range from 50 μM highest to 100 nM lowest.
Cellular H2O2 formation was measured using the Amplex Red reagent. […] Cells were seeded into 384-well clear bottom plates at a density of 20 000 cells per well in presence or absence of compounds. […] All wells contained 1.25% of DMSO. The plates were kept at 25° C. for 60 min. The amount of produced resorufin was detected with the Synergy™ Mx microplate reader (BioTek) with excitation and emission wavelengths set to 550 nm and 600 nm, respectively. Fluorescence was measured for each well and the fluorescence at 600 nm wavelength was compared to the fluorescence of the vehicle in place of compound. Inhibitory activities of example compounds were determined by calculating the IC50 value (the concentration of compound needed to inhibit 50% of the enzyme activity). The calculated IC50 values may fluctuate depending on the daily cellular assay performance. Fluctuations of this kind are known to those skilled in the art.

Row | IC50 | Structure (SMILES)
1 | 913 nM | O=C(Nc1ccc2oc(N3CCN(C4COC4)CC3)nc2c1)c1ccc2c(c1)CCO2 [Example 53, 2,3-Dihydro-benzofuran-5-carboxylic acid [2-(4-oxetan-3-yl-piperazin-1-yl)-benzooxazol-5-yl]-amide]
2 | 400 nM | O=C(Nc1ccc2oc(N3CCCC4(COC4)C3)nc2c1)c1ccc2c(c1)CCO2 [Example 55, 2,3-Dihydro-benzofuran-5-carboxylic acid [2-(2-oxa-6-aza-spiro[3.5]non-6-yl)-benzooxazol-5-yl]-amide]
3 | 906 nM | CN(CC1COC1)c1nc2cc(NC(=O)c3ccc4c(c3)CCO4)ccc2o1 [Example 56, 2,3-Dihydro-benzofuran-5-carboxylic acid [2-(methyl-oxetan-3-ylmethyl-amino)-benzooxazol-5-yl]-amide]
4 | 681 nM | CN(c1nc2cc(NC(=O)c3ccc4c(c3)CCO4)ccc2o1)C1COC1 [Example 57, 2,3-Dihydro-benzofuran-5-carboxylic acid [2-(methyl-oxetan-3-yl-amino)-benzooxazol-5-yl]-amide]
5 | 1330 nM | COCC1CCCN1c1nc2cc(NC(=O)c3ccc4c(c3)CCO4)ccc2o1 (centres unmarked) [Example 58, 2,3-Dihydro-benzofuran-5-carboxylic acid [2-(2-methoxymethyl-pyirolidin-1-yl)-benzooxazol-5-yl]-amide]
6 | 731 nM | COC1CCCN(c2nc3cc(NC(=O)c4ccc5c(c4)CCO5)ccc3o2)C1 (centres unmarked) [Example 59, 2,3-Dihydro-benzofuran-5-carboxylic acid [2-(3-methoxy-piperidin-1-yl)-benzooxazol-5-yl]-amide]
7 | 1670 nM | CN(C)CC1CCN(c2nc3cc(NC(=O)c4ccc5c(c4)CCO5)ccc3o2)C1 (centres unmarked) [Example 60, 2,3-Dihydro-benzofuran-5-carboxylic acid [2-(3-dimethylaminomethyl-pyrrolidin-1-yl)-benzooxazol-5-yl]-amide]
8 | 5240 nM | CN(C)CC1CCCN1c1nc2cc(NC(=O)c3ccc4c(c3)CCO4)ccc2o1 (centres unmarked) [Example 61, 2,3-Dihydro-benzofuran-5-carboxylic acid [2-(2-dimethylaminomethyl-pyrrolidin-1-yl)-benzooxazol-5-yl]-amide]
9 | 359 nM | O=C(Nc1ccc2oc(N(C3CC3)C3COC3)nc2c1)c1ccc2c(c1)CCO2 [Example 63, 2,3-Dihydro-benzofuran-5-carboxylic acid [2-(cyclopropyl-oxetan-3-yl-amino)-benzooxazol-5-yl]-amide]
10 | 2130 nM | O=C(Nc1ccc2oc(N3CC(N4CCCC4)C3)nc2c1)c1ccc2c(c1)CCO2 [Example 64, 2,3-Dihydro-benzofuran-5-carboxylic acid [2-(3-pyrrolidin-1-yl-azetidin-1-yl)-benzooxazol-5-yl]-amide]
11 | 851 nM | CC(C)(O)C1CN(c2nc3cc(NC(=O)c4ccc5c(c4)CCO5)ccc3o2)C1 [Example 65, 2,3-Dihydro-benzofuran-5-carboxylic acid {2-[3-(1-hydroxy-1-methyl-ethyl)-azetidin-1-yl]-benzooxazol-5-yl}-amide]
12 | 4170 nM | CN(C)CC1CN(c2nc3cc(NC(=O)c4ccc5c(c4)CCO5)ccc3o2)C1 [Example 66, 2,3-Dihydro-benzofuran-5-carboxylic acid [2-(3-dimethylaminomethyl-azetidin-1-yl)-benzooxazol-5-yl]-amide]
13 | 3080 nM | CN1CCC2(CC1)CCN2c1nc2cc(NC(=O)c3ccc4c(c3)CCO4)ccc2o1 [Example 67, 2,3-Dihydro-benzofuran-5-carboxylic acid [2-(7-methyl-1,7-diaza-spiro[3.5]non-1-yl)-benzooxazol-5-yl]-amide]
14 | 1790 nM | CN1CCC2(CC1)CN(c1nc3cc(NC(=O)c4ccc5c(c4)CCO5)ccc3o1)C2 [Example 68, 2,3-Dihydro-benzofuran-5-carboxylic acid [2-(7-methyl-2,7-diaza-spiro[3.5]non-2-yl)-benzooxazol-5-yl]-amide]
15 | 1930 nM | CN(C)C1CN(c2nc3cc(NC(=O)c4ccc5c(c4)CCO5)ccc3o2)C1 [Example 69, 2,3-Dihydro-benzofuran-5-carboxylic acid [2-(3-dimethylamino-azetidin-1-yl)-benzooxazol-5-yl]-amide]
16 | 889 nM | O=C(Nc1ccc2oc(N3CC4(C3)CS(=O)(=O)C4)nc2c1)c1ccc2c(c1)CCO2 [Example 70, 2,3-Dihydro-benzofuran-5-carboxylic acid [2-(2,2-dioxo-2l6-thia-6-aza-spiro[3.3]hept-6-yl)-benzooxazol-5-yl]-amide]
17 | 336 nM | O=C(Nc1ccc2oc(N3CCC34CCOC4)nc2c1)c1ccc2c(c1)CCO2 (centres unmarked) [Example 71, 2,3-Dihydro-benzofuran-5-carboxylic acid [2-(6-oxa-1-aza-spiro[3.4]oct-1-yl)-benzooxazol-5-yl]-amide]
18 | 524 nM | O=C(Nc1ccc2oc(N3CC4(CCS4(=O)=O)C3)nc2c1)c1ccc2c(c1)CCO2 [Example 72, 2,3-Dihydro-benzofuran-5-carboxylic acid [2(1,1-dioxo-1l6-thia-6-aza-spiro[3.3]hept-6-yl)-benzooxazol-5-yl]-amide]
19 | 4100 nM | CN(C)C1(C)CN(c2nc3cc(NC(=O)c4ccc5c(c4)CCO5)ccc3o2)C1 [Example 73, 2,3-Dihydro-benzofuran-5-carboxylic acid [2-(3-dimethylamino-3-methyl-azetidin-1-yl)-benzooxazol-5-yl]-amide]
20 | 1080 nM | O=C(Nc1ccc2oc(N3CC4(CCOC4)C3)nc2c1)c1ccc2c(c1)CCO2 [Example 74, 2,3-Dihydro-benzofuran-5-carboxylic acid [2-(6-oxa-2-aza-spiro[3.4]oct-2-yl)-benzooxazol-5-yl]-amide]
21 | 421 nM | CN1CCN(c2nc3cc(C(=O)Nc4ccc5c(c4)CCO5)ccc3o2)CC1 [Example 75, 2-(4-Methyl-piperazin-1-yl)-benzooxazole-5-carboxylic acid (2,3-dihydro-benzofuran-5-yl)-amide]
22 | 414 nM | O=C(Nc1ccc2c(c1)CCO2)c1ccc2oc(N3CCCCC3)nc2c1 [Example 76, 2-Piperidin-1-yl-benzooxazole-5-carboxylic acid (2,3-dihydro-benzofuran-5-yl)-amide]
23 | 548 nM | O=C(Nc1ccc2c(c1)CCO2)c1ccc2oc(N3CCOCC3)nc2c1 [Example 77, 2-Morpholin-4-yl-benzooxazole-5-carboxylic acid (2,3-dihydro-benzofuran-5-yl)-amide]
24 | 417 nM | CCN(CC)c1nc2cc(C(=O)Nc3ccc4c(c3)CCO4)ccc2o1 [Example 78, 2-Diethylamino-benzooxazole-5-carboxylic acid (2,3-dihydro-benzofuran-5-yl)-amide]
25 | 585 nM | O=C(Nc1ccc2c(c1)CCO2)c1ccc2oc(N3CCCC3)nc2c1 [Example 79, 2-Pyrrolidin-1-yl-benzooxazole-5-carboxylic acid (2,3-dihydro-benzofuran-5-yl)-amide]

Row | Structure (SMILES) | IC50
26 | CN(c1nc2cc(NC(=O)c3ccc4c(c3)CCO4)ccc2o1)C1CCN(C2COC2)CC1 [Example 54, 2,3-Dihydro-benzofuran-5-carboxylic acid {2-[methyl-(1-oxetan-3-yl-piperidin-4-yl)-amino]-benzooxazol-5-yl}-amide] | 2910 nM
